# Assay results taken from ChEMBL document CHEMBL1201862, “PubChem BioAssay data set” (2004).
# Where “and” joins values, the source holds several entries; their conditions need not be identical. Identical values can stand only once. Calls of active or inactive are those of the source.
# Key:
# [1] = target: T1, Heat shock factor protein 1 (Mus musculus, UniProt P38532); assay: enhancement of HSF1-driven luciferase signal – cell-based, NIH3T3, luminescence, dose retest, confirmation (AID 435004); format: functional;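 also: stress induced by proteasome inhibitor MG132 added 30 min after compound; luciferase reporter driven by HSF1 response element in NIH3T3 cells; actives raise luminescence as potentiators of the MG132 stress response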
# T1 sequence (P38532 whole entry): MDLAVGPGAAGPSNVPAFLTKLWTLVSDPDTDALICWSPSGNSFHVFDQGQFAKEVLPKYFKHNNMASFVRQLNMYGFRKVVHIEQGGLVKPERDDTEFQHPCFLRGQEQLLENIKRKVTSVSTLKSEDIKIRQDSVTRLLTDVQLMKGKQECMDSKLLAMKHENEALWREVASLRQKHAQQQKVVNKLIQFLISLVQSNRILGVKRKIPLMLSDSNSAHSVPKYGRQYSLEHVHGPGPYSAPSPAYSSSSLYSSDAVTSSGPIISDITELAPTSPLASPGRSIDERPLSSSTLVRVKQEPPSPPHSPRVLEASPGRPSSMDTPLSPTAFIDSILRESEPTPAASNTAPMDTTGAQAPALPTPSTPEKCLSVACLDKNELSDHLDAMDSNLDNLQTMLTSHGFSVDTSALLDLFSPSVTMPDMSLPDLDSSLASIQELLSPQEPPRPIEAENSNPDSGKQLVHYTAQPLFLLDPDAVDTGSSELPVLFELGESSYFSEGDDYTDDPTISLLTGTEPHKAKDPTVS
# H9c2 = assay: cells; format: functional, cell-based; details: Rattus norvegicus, H9c2, Myocardium;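 also: confirmatory concentration-response retest of ultra-high-throughput screening hits for modulation of myocardial damage; cell death induced by hydrogen peroxide oxidative stress; compound pretreatment for 60 min then peroxide exposure for 2 h; potency is for protecting the cells against peroxide damage rather than for killing them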
# Cytochrome P450 2D6 = Cytochrome P450 2D6 (Homo sapiens, UniProt P10635);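 also: CYP2D6 member of a cytochrome P450 panel assay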
# Cytochrome P450 2D6, sequence (P10635 whole entry): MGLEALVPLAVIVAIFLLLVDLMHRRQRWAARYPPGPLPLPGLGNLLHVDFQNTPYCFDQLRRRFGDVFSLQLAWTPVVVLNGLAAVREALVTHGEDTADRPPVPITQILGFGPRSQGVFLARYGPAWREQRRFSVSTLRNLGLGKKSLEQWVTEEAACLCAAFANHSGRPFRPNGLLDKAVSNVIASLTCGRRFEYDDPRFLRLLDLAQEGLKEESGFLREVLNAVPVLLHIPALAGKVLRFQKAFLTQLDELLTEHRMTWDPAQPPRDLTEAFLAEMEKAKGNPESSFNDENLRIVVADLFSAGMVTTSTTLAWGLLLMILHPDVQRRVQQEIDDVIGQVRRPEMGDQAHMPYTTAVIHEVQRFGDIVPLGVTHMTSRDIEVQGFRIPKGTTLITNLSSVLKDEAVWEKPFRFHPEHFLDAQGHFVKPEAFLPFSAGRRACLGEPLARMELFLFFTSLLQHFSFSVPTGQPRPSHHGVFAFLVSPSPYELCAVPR
# Cytochrome P450 1A2 = target: T2, Cytochrome P450 1A2 (Homo sapiens, UniProt P05177);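 also: PubChem cytochrome P450 panel assay, CYP1A2 panel member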
# T2 sequence (P05177 whole entry): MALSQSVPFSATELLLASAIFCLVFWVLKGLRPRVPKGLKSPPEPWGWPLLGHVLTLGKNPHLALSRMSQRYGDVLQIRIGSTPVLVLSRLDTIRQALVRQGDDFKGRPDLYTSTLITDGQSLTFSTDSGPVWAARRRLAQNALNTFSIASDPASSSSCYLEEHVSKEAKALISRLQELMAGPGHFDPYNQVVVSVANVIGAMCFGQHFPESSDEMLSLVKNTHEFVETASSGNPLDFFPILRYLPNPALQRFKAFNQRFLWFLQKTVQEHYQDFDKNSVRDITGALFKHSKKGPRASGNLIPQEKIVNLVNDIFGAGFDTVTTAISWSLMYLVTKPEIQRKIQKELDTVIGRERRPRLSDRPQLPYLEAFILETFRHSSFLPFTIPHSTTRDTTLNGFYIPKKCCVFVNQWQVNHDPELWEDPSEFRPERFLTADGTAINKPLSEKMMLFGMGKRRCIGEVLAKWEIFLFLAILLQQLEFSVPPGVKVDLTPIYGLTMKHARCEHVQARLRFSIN
# Cytochrome P450 2C19 = Cytochrome P450 2C19 (Homo sapiens, UniProt P33261); assay: Cytochrome panel assay with activity outcomes. Panel member name: p450-cyp2c19 Compounds with AC50 equal or less than 10 uM are considered active; format: functional
# Cytochrome P450 2C19, sequence (P33261 whole entry): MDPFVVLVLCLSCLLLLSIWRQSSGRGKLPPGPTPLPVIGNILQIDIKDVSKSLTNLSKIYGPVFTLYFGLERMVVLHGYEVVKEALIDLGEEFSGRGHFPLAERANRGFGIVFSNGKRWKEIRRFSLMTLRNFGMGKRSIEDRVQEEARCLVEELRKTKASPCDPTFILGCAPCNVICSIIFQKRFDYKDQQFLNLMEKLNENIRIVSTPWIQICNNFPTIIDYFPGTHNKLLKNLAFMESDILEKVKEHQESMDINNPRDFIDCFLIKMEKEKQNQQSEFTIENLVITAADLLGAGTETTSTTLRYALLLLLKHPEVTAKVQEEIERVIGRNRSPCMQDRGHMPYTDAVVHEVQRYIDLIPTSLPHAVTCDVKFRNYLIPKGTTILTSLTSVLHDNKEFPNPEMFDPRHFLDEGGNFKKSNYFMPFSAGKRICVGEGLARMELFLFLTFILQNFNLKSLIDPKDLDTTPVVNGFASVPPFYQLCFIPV
# [2] = Luminescence Cell-Based Dose Response HTS to Identify Activators of Luciferase Translation or Activity in H4 […] Cells. [Related pubchem assays: 1829 (Project Summary), 1814 (Primary HTS)]; format: functional
# [3] = Luminescence Cell-Based Dose Confirmation HTS to Identify Activators of 5'UTR Stem-Loop Driven Alpha-Synuclein mRNA Translation in H4 Neuroglioblastoma Cells. [Related pubchem assays: 1829 (Project Summary), 1814 (Primary HTS)]; format: functional
# H4 = assay: Luminescence Cell-Based Dose Response HTS to Identify Activators of 5'UTR Stem-Loop Driven Prion Protein mRNA Translation in H4 Neuroglioblastoma Cells. [Related pubchem assays: 1829 (Project Summary), 1814 (Primary HTS)]; format: functional; details: Homo sapiens
# Cytochrome P450 3A4 = Cytochrome P450 3A4 (Homo sapiens, UniProt P08684);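 also: CYP3A4 tested as one member of a cytochrome P450 panel screen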
# Cytochrome P450 3A4, sequence (P08684 whole entry): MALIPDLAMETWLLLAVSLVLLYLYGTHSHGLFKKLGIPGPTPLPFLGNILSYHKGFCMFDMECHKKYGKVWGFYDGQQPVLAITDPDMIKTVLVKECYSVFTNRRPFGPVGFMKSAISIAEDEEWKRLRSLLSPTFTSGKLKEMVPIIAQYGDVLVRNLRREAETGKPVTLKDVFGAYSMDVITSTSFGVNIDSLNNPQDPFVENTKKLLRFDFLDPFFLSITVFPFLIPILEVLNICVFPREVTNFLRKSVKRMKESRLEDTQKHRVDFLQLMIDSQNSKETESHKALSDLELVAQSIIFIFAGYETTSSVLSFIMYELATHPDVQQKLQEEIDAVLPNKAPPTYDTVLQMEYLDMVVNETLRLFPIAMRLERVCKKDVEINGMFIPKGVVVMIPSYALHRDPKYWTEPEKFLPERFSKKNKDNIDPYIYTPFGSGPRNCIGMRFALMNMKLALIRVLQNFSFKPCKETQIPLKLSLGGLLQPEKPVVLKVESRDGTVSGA
compound,measurement,setting,value
Cc1ccc(/C=C/C(=O)Nc2ccc(S(=O)(=O)Nc3cc(C)nc(C)n3)cc2)cc1,EC50,[1],> 260 µM (inactive)
Cc1nc(SCC(=O)N2CCN(c3ccccc3)CC2)c2oc3ccccc3c2n1,IC50,H9c2,> 79 µM (inactive)
COc1ncc2nc(-c3cccc(C#N)c3)c(=O)n(CCC#N)c2n1,AC50,Cytochrome P450 2D6,15.8 µM (inconclusive)
same,AC50,Cytochrome P450 1A2,20 µM (inconclusive)
C/C(=N\O)c1cccc[n+]1Cc1ccccc1,AC50,Cytochrome P450 2D6,3.98 µM (inconclusive)
same,AC50,Cytochrome P450 2C19; read-out: AC50,0.1 µM (inconclusive)
CC(C)(C)c1ccc(C(=O)NC(=S)Nn2cnnc2)cc1,EC50,[2],69.9 µM (active)
same,EC50,[3],> 120 µM (not active)
same,EC50,H4,30.1 µM (active)
CC(C)C(=O)Nc1ccc(NC(=O)c2cccnc2)cn1,AC50,Cytochrome P450 2C19; read-out: AC50,7.08 µM (inconclusive)
CN1CCN(c2ncncc2-c2cccnc2)CC1,AC50,Cytochrome P450 3A4,12.6 µM (inconclusive)
same,AC50,Cytochrome P450 2D6,2.51 µM (inconclusive)
same,AC50,Cytochrome P450 1A2,25.1 µM (inconclusive)
O=[N+]([O-])c1ccc(S(=O)(=O)Cc2ccccc2)c2nonc12,AC50,Cytochrome P450 2D6,6.31 µM (inconclusive)
CCOC(=O)c1cnc(-c2ccccc2)nc1Oc1ccc(C)cc1,EC50,[1],> 260 µM (inactive)
CN1CCN(CC(=O)N2c3ccccc3Sc3cc4ccccc4cc32)CC1,AC50,Cytochrome P450 3A4,3.98 µM (inconclusive)
same,AC50,Cytochrome P450 2D6,3.16 µM (inconclusive)
CC(C)c1ccc(N2C(=O)[C@@H]3Cc4ccccc4CN3C2=O)cc1,EC50,[2],45 µM (active)
same,EC50,[3],> 120 µM (not active)
same,EC50,H4,> 120 µM (not active)
Cc1cc(SCC(=O)NCCN2C(=O)CSC2=O)nc2ccccc12,EC50,[2],> 120 µM (not active)
same,EC50,[3],> 120 µM (not active)
same,EC50,H4,> 120 µM (not active)
Cc1nn(CCOc2ccccc2)c(=O)n1-c1c(F)cccc1F,EC50,[2],> 120 µM (not active)
same,EC50,[3],15.3 µM (active)
same,EC50,H4,32.2 µM (active)
COCCNc1ncnc2ccc(-c3cccc(OC)c3)cc12,AC50,Cytochrome P450 2D6,39.8 µM (inconclusive)
same,AC50,Cytochrome P450 2C19; read-out: AC50,2.51 µM (inconclusive)
CC[N+](C)(CC)CCN1C(=O)c2ccccc2S1(=O)=O,AC50,Cytochrome P450 2C19,inconclusive
COC(=O)c1ccccc1S(=O)(=O)N(Cc1ccco1)Cc1cc2cc(OC)ccc2nc1O,IC50,H9c2,> 79 µM (inactive)
COC(=O)c1cc(S(=O)(=O)N2CCN(c3ccc([N+](=O)[O-])cc3)CC2)c[nH]1,EC50,[1],> 260 µM (inactive)
COc1cc2[nH]c(C(=O)Nc3ccc(F)cc3)cc2c(OC)c1OC,EC50,[2],9.27 µM (active)
same,EC50,[3],> 120 µM (not active)
same,EC50,H4,> 120 µM (not active)
COc1ccc2[nH]cc(CCNc3nc(-c4ccccc4CN(C)C)nc4ccccc34)c2c1,AC50,Cytochrome P450 3A4,2 µM (inconclusive)
same,AC50,Cytochrome P450 2D6,31.6 µM (inconclusive)
same,AC50,Cytochrome P450 1A2,25.1 µM (inconclusive)
CC(OC(=O)/C=C/c1ccc2ccccc2n1)C(=O)NCc1ccccc1 (configuration not stated),EC50,[1],13.3 µM (active)
CC(C)C(=O)N1CCN(c2ccccc2NC(=O)c2cccc(Cl)c2)CC1,AC50,Cytochrome P450 3A4,12.6 µM (inconclusive)
same,AC50,Cytochrome P450 2D6,15.8 µM (inconclusive)
same,AC50,Cytochrome P450 1A2,20 µM (inconclusive)
COc1cc2c(cc1NC(=O)CSc1nccn1C)oc1ccccc12,EC50,[2],7.9 µM (active)
same,EC50,[3],13 µM (active)
same,EC50,H4,27.6 µM (active)
CCn1ncc2c1C(=O)NC1c3ccccc3C(=O)N21 (configuration not stated),IC50,H9c2,32 µM (inactive)
CC(C)NC(=O)N1CC2(CCN(C(=O)c3ccco3)CC2)C1,AC50,Cytochrome P450 2D6,12.6 µM (inconclusive)
COc1cccc(-c2ccc3ncnc(NCCNC(C)=O)c3c2)c1,AC50,Cytochrome P450 2D6,39.8 µM (inconclusive)
CCOc1ccc(-n2cc(C(=O)N3CCC(C)CC3)c3cc(OC)c(OC)cc3c2=O)cc1,EC50,[1],> 260 µM (inactive)
C=CCN1C(=O)NC(=O)/C(=C(/CC)Nc2ccc3c(c2)CCC3)C1=O,EC50,[1],> 260 µM (inactive)
O=C(CSc1nn(-c2ccc(F)cc2)c(=S)s1)N1CCN(C(=O)c2ccco2)CC1,EC50,[1],> 260 µM (inactive)
Cc1cc(NC(=O)NC(=O)c2ccccc2)no1,EC50,[2],7.68 µM (active)
same,EC50,[3],3.66 µM (active)
same,EC50,H4,42.3 µM (inconclusive)
O=C(CSC1CC(=O)N(CC(c2ccccc2)c2ccccc2)C1=O)Nc1ccc(Cl)cc1 (configuration not stated),AC50,Cytochrome P450 2D6,2 µM (inconclusive)
same,AC50,Cytochrome P450 1A2,35.5 µM (inconclusive)
COc1cccc(C2C(C(N)=O)=C(C)Nc3nc(-c4cccc(Cl)c4)nn32)c1 (configuration not stated),EC50,[1],71.9 µM (active)
CC1(C)Cc2nc(NCCN3CCOCC3)c(C#N)cc2CO1,EC50,[1],> 260 µM (inactive)
CC1SCC(=NOCc2ccccc2)CS1 (configuration not stated),EC50,[2],17.7 µM (active)
same,EC50,[3],14.5 µM (active)
same,EC50,H4,18.2 µM (active)
Cc1cccc(NC(=O)CSc2nc(O)c3c(C)cc(C)nc3n2)c1,AC50,Cytochrome P450 2D6,15.8 µM (inconclusive)
Cc1ccc(S(=O)(=O)N(C)C)cc1NC(=O)COC(=O)c1c(C)noc1C,EC50,[1],> 260 µM (inactive)
Cn1c(C(=O)NCc2cccs2)cc2c(=O)n(C)c3ccccc3c21,IC50,H9c2,> 79 µM (inactive)
COc1cccc(NC(=O)CN(C)C(=O)Cc2nnc(O)c3ccccc23)c1,IC50,H9c2,> 79 µM (inactive)
CCCN1CCC(=NNc2ccc(C(=O)O)cc2)CC1,EC50,[2],30.4 µM (active)
same,EC50,[3],7.27 µM (active)
same,EC50,H4,10.7 µM (active)
COc1ccc(-c2cn3c(C)c(C(=O)NC(C)(C)C)sc3n2)cc1,EC50,[2],31.5 µM (active)
same,EC50,[3],1.06 µM (active)
same,EC50,H4,> 120 µM (not active)
Cc1ccc(C(=O)NC2CCCN(c3ccc(C(F)(F)F)cn3)C2)cn1 (configuration not stated),EC50,[1],> 260 µM (inactive)
O=C(/C=C/c1ccc(Cl)cc1)NCCN1CCOCC1,AC50,Cytochrome P450 2C19,inconclusive
COC(=O)c1ccc(N(CC(=O)NC2CCCCC2)C(=O)CNC(=O)c2ccco2)cc1,EC50,[1],> 260 µM (inactive)
CN(CC(=O)Nc1ccccc1Br)C(=O)Cn1[nH]c(=O)c2ccccc2c1=O,IC50,H9c2,> 79 µM (inactive)
CC(OC(=O)CCc1nc(O)c2ccccc2n1)C(=O)Nc1ccc2c(c1)OCO2 (configuration not stated),IC50,H9c2,39.1 µM (inactive)
CS(=O)(=O)Nc1ccc(-c2ccc3nccn3c2)cc1,IC50,H9c2,> 79 µM (inactive)
COc1ccc(C=CC(=O)c2ccc3cc(OC)c(OC)cc3c2)cc1OC,IC50,H9c2,> 79 µM (inactive)
O=C1[C@H]2[C@@H](c3ccc(C(F)(F)F)cc3)N[C@]3(CCCN(Cc4ccc(F)cc4)C3=O)[C@H]2C(=O)N1Cc1ccccc1,IC50,H9c2,> 79 µM (inactive)
COc1ccccc1NC(=O)COc1ccc(/C=N/NC(=O)c2cccnc2)cc1,IC50,H9c2,17.2 µM (active)
COc1cc(/C=N/N2C(=O)c3ccccc3NC2(C)c2cccc([N+](=O)[O-])c2)cc(Br)c1O (configuration not stated),EC50,[1],34.1 µM (active)
O=C(Nc1ccccc1)N[C@H]1C[C@H](C(=O)O)Nc2cc(Cl)cc(Cl)c21,AC50,Cytochrome P450 3A4,25.1 µM (inconclusive)
same,AC50,Cytochrome P450 1A2,39.8 µM (inconclusive)
same,AC50,Cytochrome P450 2C19; read-out: AC50,25.1 µM (inconclusive)
O=C1/C(=C\c2ccc(Br)o2)S/C(=N/c2ccccc2)N1c1ccccc1,AC50,Cytochrome P450 2C19; read-out: AC50,7.94 µM (inconclusive)
O=[N+]([O-])c1ccc(N/N=C2\CC3CC=CC23)cc1 (configuration not stated),EC50,[2],13.2 µM (active)
same,EC50,[3],15.2 µM (active)
same,EC50,H4,24.3 µM (active)
COC(=O)c1ccc(/N=C/c2c(C(F)(F)F)n[nH]c2O)cc1,EC50,[2],> 120 µM (not active)
same,EC50,[3],> 120 µM (not active)
same,EC50,H4,> 120 µM (not active)
O=S(=O)(N/N=C\c1cccn1-c1ccccc1)c1ccc2ccccc2c1,AC50,Cytochrome P450 2C19; read-out: AC50,0.794 µM (inconclusive)
O=[N+]([O-])c1cccc(/C=N/N2CCN(Cc3ccccc3)CC2)c1,EC50,[2],20.8 µM (active)
same,EC50,[3],14.7 µM (active)
same,EC50,H4,20.2 µM (active)
N[C@@H](CSS(=O)(=O)O)C(=O)O,AC50,Cytochrome P450 1A2,39.8 µM (inconclusive)
same,AC50,Cytochrome P450 2C19; read-out: AC50,7.94 µM (inconclusive)
CCN(CC)CCNC(=O)c1cc(S(C)(=O)=O)ccc1OC [TIAPRIDE],AC50,Cytochrome P450 2D6,7.94 µM (inconclusive) and 31.6 µM (inconclusive)
